Laboratory results reported in US11981944B2, “Immunogenic arginase peptides” (IO Biotech ApS, priority 2016, dated 2024).

Key:
Type in all cases: cell-based, human
[1] = tested on: PBMCs from healthy donors or cancer patients; test: IFNγ ELISPOT on PBMCs after one week peptide and IL-2 stimulation (Example 2); conditions: selected PBMCs from cancer patients and healthy donors; one week stimulation with IL-2; FIG. 10B, 10C
Method: PBMCs from healthy donors or cancer patients were stimulated with 80 μg of arginase-derived peptides and 120 U/ml IL-2 (Peprotech, London, UK, cat. 200-02) for a week. 4-6×10^5 PBMCs were then placed in the bottom of ELISPOT plate (nitrocellulose bottomed 96-well plates by MultiScreen MAIP […]; Millipore, cat. MSIPN4W50) pre-coated with IFN-y capture Ab (Mabtech, cat. 3420-3-1000) and 1-10 μg of arginase derived peptides were added. PBMCs from each patient and donors were set up in duplicates or triplicates for peptide and control stimulations. Cells were incubated in ELISPOT plates in the presence of an antigen for 14-16 hours after which they are washed off and secondary biotinylated Ab (Mabtech, cat. 3420-6-1000) was added. After 2 h incubation unbound secondary antibody was washed off and streptavidin conjugated alkaline phosphatase (AP) (Mabtech, cat. 3310-10) was added for 1 h. Next, unbound conjugated enzyme is washed off and the assay is developed by adding BCIP/NBT substrate (Mabtech, cat. 3650-10). Developed ELISPOT plates were analysed on CTL ImmunoSpot S6 Ultimate-V analyzer using Immunospot software v5.1. Responses were calculated as the difference between average numbers of spots in wells stimulated with Arginase-1 peptides and control wells. We divided the entire arginase-1 protein sequence into overlapping 20-amino-acid-long peptides, generating a library of 31 peptides covering the whole sequence (SEQ ID NOs 18-48)). Each peptide in the library overlapped with the first 10 amino acids of the following peptide. Using this arginase peptide library and the IFNγ ELISPOT assay, we next screened PBMCs from melanoma patients and healthy donors for spontaneous responses (FIGS. 9A and 9B). The PBMCs were stimulated for one week with a pool of 3-4 adjacent 20-mer arginase library peptides and low-dose IL-2 (120 U/mL). They were then set up for an IFNγ ELISPOT assay to screen for responses against each 20-mer peptide separately. […] Among these overlapping peptides, […]-200), and Arg(191-210) spanned a 50-amino-acid-long region that was deemed a hot-spot region since nearly all patients harbored a response against one or more of these peptides (FIG. 9A). The selected eight peptides were further used to screen for spontaneous immune responses against arginase-1 in PBMCs from eight healthy donors using IFNγ ELISPOT. […] Since we most frequently observed responses against arginase-1 peptides from the hot-spot region, we next analyzed whether longer peptides covering the same sequence could be used instead of four 20-mers. […] We then divided the arginase-1 hot-spot region into two 30-mer peptides that overlapped by 10 amino acids (peptides labelled by reference to start and end position): […]-190) and […]-210). These 30-mer peptides were used to check for responses in selected PBMCs from cancer patients and healthy donors, which had previously shown responses against the 20-mer hot-spot peptides. The PBMCs were stimulated for one week with either […]-190) or […]-210) in the presence of IL-2, and were then used in IFNγ ELISPOT.

[2] = tested on: arginase-specific CD4+ T-cell culture; test: Recognition by arginase-specific CD4+ T-cell culture (ArgShort-stimulated); conditions: for recognition by T-cell culture specific against the minimal arginase epitope: IFNγ ELISPOT and intracellular staining, FIG. 11C
Method: (§1) PBMCs from healthy donors or cancer patients were stimulated with 80 μg of arginase-derived peptides and 120 U/ml IL-2 (Peprotech, London, UK, cat. 200-02) for a week. 4-6×10^5 PBMCs were then placed in the bottom of ELISPOT plate (nitrocellulose bottomed 96-well plates by MultiScreen MAIP N45; Millipore, cat. MSIPN4W50) pre-coated with IFN-y capture Ab (Mabtech, cat. 3420-3-1000) and 1-10 μg of arginase derived peptides were added. PBMCs from each patient and donors were set up in duplicates or triplicates for peptide and control stimulations. Cells were incubated in ELISPOT plates in the presence of an antigen for 14-16 hours after which they are washed off and secondary biotinylated Ab (Mabtech, cat. 3420-6-1000) was added. After 2 h incubation unbound secondary antibody was washed off and streptavidin conjugated alkaline phosphatase (AP) (Mabtech, cat. 3310-10) was added for 1 h. Next, unbound conjugated enzyme is washed off and the assay is developed by adding BCIP/NBT substrate (Mabtech, cat. 3650-10). Developed ELISPOT plates were analysed on CTL ImmunoSpot S6 Ultimate-V analyzer using Immunospot software v5.1. Responses were calculated as the difference between average numbers of spots in wells stimulated with Arginase-1 peptides and control wells.
Arginase-specific T cell culture were established by stimulation of cancer patient PBMC with irradiated ArgShort (SEQ ID NO 9) peptide-loaded autologous DC or PBMCs. The following day IL-7 and IL-12 (PeproTech, London, UK, cat. 200-07-10 and 200-12) were added. Stimulation of the cultures were carried out every 8 days with ArgShort peptide loaded irradiated autologous DC followed by ArgShort peptide-loaded irradiated autologous PBMC. The day after peptide stimulation IL-2 […]. After 5 stimulations arginase-specific T cells were enriched using TNF-α cell enrichment kit (MiltenyiBiotec, cat. 130-091-269).
Flow cytometry analysis was performed on a FACSCanto™ II (BD Biosciences, San Jose CA, USA). […]

[3] = tested on: peripheral blood mononuclear cells (PBMC); test: IFN-gamma ELISPOT secretion assay on PBMC (Example 1)
[4] = tested on: T2-cells loaded with peptide; test: 51Cr-release assay for CTL-mediated cytotoxicity; conditions: standard chromium release assay; FIG. 5
Method: Conventional ^51Cr-release assays for CTL-mediated cytotoxicity were carried out as described elsewhere. Target cells were T2-cells (ATCC), HLA-A2^+ melanoma cell lines (FM3 and FM93)
In this experiment Arginase specific T cells were incubated 4 h with either Cr-labeled melanoma cell lines FM3 or FM93 at different effector:target ratios. Both cell lines express intracellular Arginase.

[5] = tested on: PBMCs from two healthy donors and one cancer patient; test: Intracellular staining for IFNγ and TNFα release in PBMCs
Method: Flow cytometry analysis was performed on a FACSCanto™ II (BD Biosciences, San Jose CA, USA). Intracellular staining of cell cultures was performed after the cells were stimulated with 20-mere peptides for 5 hours or 30-mere peptides for 8h (BD GolgiPlug™ cat. 555029, was added after the first hour). The cells were then stained for surface markers, then washed and permeabilized by using Fixation/Permeabilization and Permeabilization Buffer (eBioscience, cat. 00-5123-43), according to manufacturer's instructions. Antibodies used: IFNγ-APC (cat. 341117), TNFα-BV421 (cat. 562783), CD4-FITC (cat. 347413), CD8-PerCP (cat. 345774) (all from BD Biosciences). Dead cells were stained using FVS510 (564406, BD Biosciences) according to manufacturer's instructions.
To investigate which types of T cells reacted to the peptide epitopes in the hot-spot region, we performed intracellular staining for IFNγ and TNFα release in PBMCs from two healthy donors and one cancer patient, which had shown responses against the Arg(161-190) peptide in IFNγ ELISPOT.

[6] = tested on: PBMCs from cancer patients; test: IFNγ ELISPOT with HLA Class I / Class II blocking; conditions: anti-Class I W6/32 or anti-Class II Tü39; FIG. 11B
Method: as §1, with “wells. […]” for “wells.”

GFSWVTPCISAKDIVYIGLRDVDPGEHYILKTLGIKYFSMTEVDRLGIGK (Peptide fragment of human Arginase 1) [50-mer peptide, 50-mer covering the entire hot-spot region, positions 161-210 of human Arginase 1]
IFNγ ELISPOT responses against longer hot-spot peptides [1]: lower responses compared to the 20-mer peptides | recognition by T-cell culture specific against the minimal arginase epitope [2]: not recognized

IVYIGLRDV (Peptide fragment of human Arginase 1) [Arg8, positions 174-182 of human Arginase 1]
specific T-cell responses against Arg-derived peptide ([3]; IFN-gamma ELISPOT, PBMC from six melanoma patients, FIG. 1): Strong responses | Immune responses against Arg 8 peptide ([3]; PBMC from 6 cancer patients, specific cells/3×10e5 cells, FIG. 2): Very strong responses were frequently detected | killing of peptide-loaded target cells by CD8 positive culture [4]: can kill target cells loaded with Arg8

GFSWVTPCISAKDIVYIGLRDVDPGEHYIL (Peptide fragment of human Arginase 1) [Arg(161-190), 30-mer, positions 161-190 of human Arginase 1]
IFNγ ELISPOT responses against longer hot-spot peptides [1]: high responses | TNFα release from CD4+ T cells ([5]; 8-hour incubation with peptide, FIG. 11A): detected TNFα release from CD4+ T cells | response from CD8+ T cells ([5]; some samples, data not shown): minor response | IFNγ release in response to peptide on blocking HLA Class I or Class II [6]: partially blocked the IFNγ release | TNFα release from CD4+ T cells, intracellular staining ([2]; 8 hours of peptide stimulation, FIG. 11C right): TNFα release from CD4+ T cells | recognition by T-cell culture specific against the minimal arginase epitope [2]: recognized
